Consider 1 molecule from ChEMBL document CHEMBL2346648, “A series of thiazole derivatives bearing thiazolidin-4-one as non-competitive ADAMTS-5 (aggrecanase-2) inhibitors” (Bioorg Med Chem Lett, 2013).

The test deals with T1, A disintegrin and metalloproteinase with thrombospondin motifs 5 (Homo sapiens, UniProt Q9UNA0).
T1 sequence (Q9UNA0 whole entry): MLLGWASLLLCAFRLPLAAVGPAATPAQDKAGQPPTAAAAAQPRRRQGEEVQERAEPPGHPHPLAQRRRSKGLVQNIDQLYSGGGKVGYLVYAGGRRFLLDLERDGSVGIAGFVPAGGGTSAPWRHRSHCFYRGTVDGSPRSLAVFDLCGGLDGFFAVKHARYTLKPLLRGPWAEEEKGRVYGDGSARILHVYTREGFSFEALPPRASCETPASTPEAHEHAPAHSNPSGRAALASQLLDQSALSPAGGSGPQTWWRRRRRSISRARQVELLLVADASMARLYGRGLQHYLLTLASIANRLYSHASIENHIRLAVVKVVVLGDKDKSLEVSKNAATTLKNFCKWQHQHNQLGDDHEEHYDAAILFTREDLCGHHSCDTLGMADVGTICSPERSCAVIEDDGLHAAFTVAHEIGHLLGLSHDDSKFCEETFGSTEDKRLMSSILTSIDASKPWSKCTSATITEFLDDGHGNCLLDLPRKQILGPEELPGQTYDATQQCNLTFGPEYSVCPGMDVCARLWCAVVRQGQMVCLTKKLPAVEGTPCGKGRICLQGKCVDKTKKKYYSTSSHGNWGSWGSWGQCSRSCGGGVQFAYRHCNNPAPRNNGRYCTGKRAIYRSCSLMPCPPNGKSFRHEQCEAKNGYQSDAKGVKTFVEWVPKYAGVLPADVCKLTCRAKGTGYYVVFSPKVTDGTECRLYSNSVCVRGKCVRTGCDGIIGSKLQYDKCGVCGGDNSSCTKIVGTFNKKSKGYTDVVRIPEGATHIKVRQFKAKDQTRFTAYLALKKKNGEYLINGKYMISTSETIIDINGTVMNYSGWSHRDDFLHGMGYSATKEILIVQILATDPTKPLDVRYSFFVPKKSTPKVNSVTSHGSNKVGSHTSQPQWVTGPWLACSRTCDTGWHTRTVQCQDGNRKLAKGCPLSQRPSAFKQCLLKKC
The experiment in a line: Inhibition of human His-tagged ADAMTS-5 using QF-peptide as substrate by FRET method.

In general, IC50 refers to the point on the concentration scale where inhibition reaches its midpoint. Lower therefore signals higher potency. Regarding `O=C(O)CCc1sc(/C=C2\NC(=O)CS2)nc1-c1ccccn1`, the midpoint of inhibition, the IC50, lay at 230 nM.
